The subject of test [1] is S. aureus, B. subtilis, E. coli, S. cerevisiae. Conditions: cited from earlier work.
Test [2] addresses α-glucosidase (Saccharomyces cerevisiae, UniProt P53341). It is filed as biochemical. Conditions: Table 4, reference compounds, independent experiment; read-out: IC50, α-Glucosidase inhibition.
In test [3] the test system is various bacterial pathogens. Further details: method as in PMID 34394014. As to conditions: cited from earlier work.
For test [4], the target named is T1, α-amylase (Sus scrofa, UniProt P00690).
T1 sequence (P00690 16-511): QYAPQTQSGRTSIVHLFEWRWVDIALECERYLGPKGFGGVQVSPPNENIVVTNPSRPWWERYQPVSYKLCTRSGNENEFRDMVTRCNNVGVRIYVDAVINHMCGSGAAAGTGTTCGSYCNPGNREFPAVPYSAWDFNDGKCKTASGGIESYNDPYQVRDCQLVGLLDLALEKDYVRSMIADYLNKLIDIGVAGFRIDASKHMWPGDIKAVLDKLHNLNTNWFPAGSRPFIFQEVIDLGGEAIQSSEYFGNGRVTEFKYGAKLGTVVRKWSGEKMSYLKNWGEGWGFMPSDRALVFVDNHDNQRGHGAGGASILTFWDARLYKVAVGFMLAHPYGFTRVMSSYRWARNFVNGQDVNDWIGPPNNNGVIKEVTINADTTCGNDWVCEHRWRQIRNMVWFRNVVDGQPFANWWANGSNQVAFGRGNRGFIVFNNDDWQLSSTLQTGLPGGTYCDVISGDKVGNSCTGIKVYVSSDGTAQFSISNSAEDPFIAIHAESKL
Description: α-Amylase inhibitory assay (starch azure). It is filed as biochemical. As to conditions: Table 4, reference compounds, independent experiment; read-out: IC50, α-Amylase inhibition.

Test [5] deals with S. aureus, B. subtilis, E. coli, and Klebsiella pneumoniae. As to conditions: cited from earlier work.
Test [6] concerns Gram-positive and Gram-negative bacteria and fungi. Conditions: cited from earlier work.

Sequence of α-glucosidase (P53341 whole entry, looked up): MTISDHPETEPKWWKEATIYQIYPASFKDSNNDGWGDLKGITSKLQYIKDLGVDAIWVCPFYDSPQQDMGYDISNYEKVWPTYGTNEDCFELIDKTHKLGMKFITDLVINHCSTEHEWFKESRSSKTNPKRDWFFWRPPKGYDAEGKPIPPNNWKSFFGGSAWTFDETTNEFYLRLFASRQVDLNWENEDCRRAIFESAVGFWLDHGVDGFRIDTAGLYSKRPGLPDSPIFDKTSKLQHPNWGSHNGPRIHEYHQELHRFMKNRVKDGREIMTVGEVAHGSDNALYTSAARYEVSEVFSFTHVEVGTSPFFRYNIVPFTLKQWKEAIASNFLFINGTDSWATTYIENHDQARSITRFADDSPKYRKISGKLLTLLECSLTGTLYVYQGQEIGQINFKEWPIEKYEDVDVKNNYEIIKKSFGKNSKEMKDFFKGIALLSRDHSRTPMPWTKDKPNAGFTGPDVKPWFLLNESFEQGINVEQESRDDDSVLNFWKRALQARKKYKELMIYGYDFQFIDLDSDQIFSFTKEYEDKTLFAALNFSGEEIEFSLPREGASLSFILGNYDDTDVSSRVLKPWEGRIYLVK

In the case of `C=C(C)C1CC=C(C)CC1` (stereo not drawn) [C4, 4-Isopropenyl-1-methylcyclohexene], the MICs in test [1] is 0.5 to 1.0 µg/mL.

For the molecule `CSSSC` [C11, Dimethyltrisulfane], the IC50 in test [2] came out at 462 ± 44 µM; in test [4] it was 332 ± 23 µM. Also, the antimicrobial activity result in test [3] is reported as “promising antimicrobial activity”.

Take `CCCCCCCCCCCCCCCC(=O)O` [C21, n-Hexadecanoic acid]: the antibacterial effects result in test [5] is “good antibacterial effects”.

Take `CCCCCC/C=C\CCCCCCCC(=O)O` [C22, Palmitoleic acid]: in test [6], the antimicrobial activity entry is recorded as “antimicrobial activity”.

What is called IC50 is the midpoint of a concentration-inhibition curve.

These data come from PMC12706144, “Potential Antidiabetic Inhibitors and Antimicrobials from the Fungus Fusarium lichenicola Isolated from the Cicada Cryptotympana mandarina Distant, 1891” (Journal of Microbiology and Biotechnology, 2025).
